Read-outs that look alike come from different tables or passages of the source. Ends that are not written are not given here.
Assays:
Format in all cases: cell-based
[1] = system: Pseudomonas aeruginosa ATCC 9027; details: complete growth inhibition not achieved
Excerpt: (§1) The bolisin analogues of the present invention were examined for their suitability as antibiotic therapeutical agents by means of various biological tests. Thus, the chemically synthesized peptides were examined for their antimicrobial effectiveness against three Gram-positive and three Gram-negative bacterial strains as well as against a yeast.
(§2) The following microorganisms were used: • Gram-positive: Staphylococcus aureus ATCC 25923 • Enterococcus faecalis ATCC 51299 (vancomycin-resistant) • Streptococcus pneumoniae DSM 11865 (penicillin-resistant) • Gram-negative: Escherichia coli ATCC 25922 • Pseudomonas aeruginosa ATCC 9027 • Klebsiella pneumoniae ATCC 10031 • Yeast: Candida albicans ATCC 10231
(§3) The antibiotic activity of bolisin analogues was examined by determining the minimum inhibition concentration. The minimum inhibition concentration of an analogue designates the lowest peptide concentration which is required to inhibit the growth of microorganisms completely after an incubation time of 18±2 h. This method allows to obtain a quantitative result about the antimicrobial potency of the peptides. These examinations were performed by analogy with the recommendations (M7-A3) edited by the NCCLS (National Committee for Clinical Laboratory Standards) by applying a dilution test in a liquid medium using chemically synthesized peptides (peptide sequences according to claims 1 to 3). Mueller Hinton Broth was used as the test medium according to the NCCLS recommendations unless indicated otherwise. […] The minimum inhibition concentrations are stated in [μg/ml].
(§4) A complete growth inhibition could not be achieved in this case. For determining the minimum inhibition concentration, the following microorganisms were used: • 1. Staphylococcus aureus ATCC 25923 • 2. Enterococcus faecalis ATCC 51299 (vancomycin-resistant) • 3. Streptococcus pneumoniae DSM 11865 (penicillin-resistant) • 4. Escherichia coli ATCC 25922 • 5. Pseudomonas aeruginosa ATCC 9027 • 6. Klebsiella pneumoniae ATCC 10031 • 7. Candida albicans ATCC 10231

[2] = system: Staphylococcus aureus ATCC 25923; details: ATCC 25923, 2 h
Excerpt: as §1, §2
as §3, with “The minimum inhibition concentration of an analogue designates the lowest peptide concentration which is required to inhibit the growth of microorganisms completely after an incubation time of 18±2 h.” left out
as §4

[3] = system: Enterococcus faecalis ATCC 51299 (vancomycin-resistant); details: ATCC 51299, 2 h
Excerpt: as §1, §2
as §3, with “The minimum inhibition concentration of an analogue designates the lowest peptide concentration which is required to inhibit the growth of microorganisms completely after an incubation time of 18±2 h.” left out
as §4

[4] = system: Streptococcus pneumoniae DSM 11865 (penicillin-resistant); details: DSM 11865, 2 h
Excerpt: as §1, §2
as §3, with “The minimum inhibition concentration of an analogue designates the lowest peptide concentration which is required to inhibit the growth of microorganisms completely after an incubation time of 18±2 h.” left out
as §4

[5] = system: Klebsiella pneumoniae ATCC 10031; details: ATCC 10031, 2 h
Excerpt: as §1, §2
as §3, with “The minimum inhibition concentration of an analogue designates the lowest peptide concentration which is required to inhibit the growth of microorganisms completely after an incubation time of 18±2 h.” left out
as §4

[6] = system: Escherichia coli ATCC 25922; details: ATCC 25922, 2 h
Excerpt: as §1, §2
as §3, with “The minimum inhibition concentration of an analogue designates the lowest peptide concentration which is required to inhibit the growth of microorganisms completely after an incubation time of 18±2 h.” left out
as §4

[7] = system: Candida albicans ATCC 10231; details: for minimum inhibition concentration: ATCC 10231, 2 h
Excerpt: as §1, §2
as §3, with “The minimum inhibition concentration of an analogue designates the lowest peptide concentration which is required to inhibit the growth of microorganisms completely after an incubation time of 18±2 h.” left out
as §4

[8] = half-concentrated Mueller Hinton Broth

Substance	peptide concentration giving 75% inhibition of growth (value in parentheses) ([1]; Mueller Hinton Broth)	minimum inhibition concentration [2] [µg/mL]	minimum inhibition concentration [3] [µg/mL]	minimum inhibition concentration [4] [µg/mL]	minimum inhibition concentration [5] [µg/mL]	minimum inhibition concentration [6] [µg/mL]	peptide concentration giving 75% inhibition of growth (value in parentheses) [1, 8]	peptide concentration giving 75% inhibition of growth (value in parentheses) ([7]; Mueller Hinton Broth, complete growth inhibition not achieved)	minimum inhibition concentration [7] [µg/mL]
YIVYKIRFAFKRSKAL [BOL-91, YIVYKIRFAFKRSKAL]	(150) μg/ml	25	37.5	37.5	18.75	25	–	–	–
YIVYKRRSADKRRKALK-OH [BOL-12, YIVYKRRSADKRRKALK]	–	18.75	>300	>300	200	18.75	(300) μg/ml	–	–
YIVYKIRSARKRSKALK-OH [BOL-6, YIVYKIRSARKRSKALK]	–	37.5	200	150	37.5	37.5	(9.375) μg/ml	–	–
YIVYKIRWAKKRWKALK-OH [BOL-60, YIVYKIRWAKKRWKALK]	(18.75) μg/ml	50	25	50	18.75	100	–	(18.75) μg/ml	–
YIVYKIRWTWKRSKAL [BOL-97, YIVYKIRWTWKRSKAL]	(37.5) μg/ml	12.5	18.75	18.75	18.75	18.75	–	–	–
YIVWKIRSAWKRSKALK-OH [BOL-75, YIVWKIRSAWKRSKALK]	(37.5) μg/ml	150	200	150	75	75	–	–	37.5
KLAKRRKWAWRIKYVIY [BOL-103, KLAKRRKWAWRIKYVIY]	(9.4) μg/ml	18.75	37.5	37.5	18.75	18.75	–	–	–
YIVYKIRWADKRSKALK-OH [BOL-27, YIVYKIRWADKRSKALK]	–	75	300	300	150	75	(150) μg/ml	–	–
YIVYKIRWARKRSKALK-OH [BOL-49, YIVYKIRWARKRSKALK]	(12.5) μg/ml	75	25	18.75	18.75	50	–	–	18.75
YIVWKIRSARKRRKALK-OH [BOL-74, YIVWKIRSARKRRKALK]	(12.5) μg/ml	300	150	150	18.75	300	–	–	75
YIVYKRRSARKRSKALK-OH [BOL-11, YIVYKRRSARKRSKALK]	–	37.5	>300	>300	150	37.5	(150) μg/ml	–	–
YIVYKIRSADKRWKALK-OH [BOL-30, YIVYKIRSADKRWKALK]	–	100	>300	>300	300	150	(300) μg/ml	–	–
YIVYKIRSAWKRSKALK-OH [BOL-29, YIVYKIRSAWKRSKALK]	–	9.375	75	150	50	9.375	(18.75) μg/ml	–	–
YIVYKIRFAFKRRKAL [BOL-92, YIVYKIRFAFKRRKAL]	(37.5) μg/ml	18.75	18.75	25	12.5	18.75	–	–	–
YIVYKRRSARKRRKALK-OH [BOL-15, YIVYKRRSARKRRKALK]	–	18.75	>300	>300	75	18.75	(150) μg/ml	–	–
YIRYKIRSARKRRKALK-OH [BOL-14, YIRYKIRSARKRRKALK]	–	50	>300	>300	75	37.5	(150) μg/ml	–	–
YIVYKIRWAWKRSKAL [BOL-93, YIVYKIRWAWKRSKAL]	(37.5) μg/ml	25	37.5	25	25	25	–	–	–
YIRYKRRSADKRRKALK-OH [BOL-16, YIRYKRRSADKRRKALK]	–	100	>300	>300	150	75	(300) μg/ml	–	–
YIVYKIRSADKRRKALK-OH [BOL-7, YIVYKIRSADKRRKALK]	–	75	>300	>300	300	150	(75) μg/ml	–	–
YIVYKIRSAPKRSKALK-OH [BOL-21, YIVYKIRSAPKRSKALK]	–	75	>300	>300	200	150	(150) μg/ml	–	–
YIVWKIRSADKRSKALK-OH [BOL-25, YIVWKIRSADKRSKALK]	–	150	>300	>300	200	150	(150) μg/ml	–	–
YIVYKIRSARKRRKALK-OH [BOL-13, YIVYKIRSARKRRKALK]	–	18.75	75	150	18.75	18.75	(9.375) μg/ml	–	–

From patent US7449545B2, “Antimicrobial bolisin peptides” (IPF Pharmaceuticals GmbH, priority 2001, dated 2008)
